Two compounds from patent US9045524B2, “Selective caspase inhibitors and uses thereof” (NOVAGENESIS FOUNDATION, priority 2009, dated 2015) can be followed below.

Read-outs that look alike come from different tables or passages of the source. Bounds are passed on as bounds.

In general, IC50 refers to the concentration that inhibits the measured activity by half. What is called inhibition is the drop in the measured response relative to a control, in per cent.

The target of assay [1] is T1, Caspase-7 (Homo sapiens (Human), UniProt P55210). Kind of assay: Caspase-7 Inhibitor Drug Screening Kit, fluorometric (AFC liberation). Type of assay: biochemical. The conditions noted are these: 30-minute incubation at 37° C.; approximations of the average values; read-out: Caspase enzymatic activity, IC50 (uM) Caspase 7.
Target sequence in this assay (P55210 whole entry): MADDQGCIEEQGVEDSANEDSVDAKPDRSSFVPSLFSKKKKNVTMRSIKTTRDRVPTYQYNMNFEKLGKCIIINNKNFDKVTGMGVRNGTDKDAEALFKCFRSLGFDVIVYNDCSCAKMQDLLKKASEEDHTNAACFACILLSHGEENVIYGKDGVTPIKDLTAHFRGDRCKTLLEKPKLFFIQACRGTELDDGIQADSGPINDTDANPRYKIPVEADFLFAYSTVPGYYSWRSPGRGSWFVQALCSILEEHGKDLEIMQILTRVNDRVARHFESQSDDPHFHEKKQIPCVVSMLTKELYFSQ
Experimental: (§3) The level of inhibition of caspase-1, -3, -5, -7, -9 activity was determined by comparison of the relative fluorescence intensity in samples with or without the compound.
Assay [2] has as its target T2, Caspase-9 (Homo sapiens (Human), UniProt P55211). Kind of assay: Caspase-9 Inhibitor Drug Screening Kit, fluorometric (AFC liberation). Type of assay: biochemical. The conditions noted are these: 30-minute incubation at 37° C.; approximations of the average values; read-out: Caspase enzymatic activity, IC50 (uM) Caspase 9.
Target sequence in this assay (P55211 whole entry): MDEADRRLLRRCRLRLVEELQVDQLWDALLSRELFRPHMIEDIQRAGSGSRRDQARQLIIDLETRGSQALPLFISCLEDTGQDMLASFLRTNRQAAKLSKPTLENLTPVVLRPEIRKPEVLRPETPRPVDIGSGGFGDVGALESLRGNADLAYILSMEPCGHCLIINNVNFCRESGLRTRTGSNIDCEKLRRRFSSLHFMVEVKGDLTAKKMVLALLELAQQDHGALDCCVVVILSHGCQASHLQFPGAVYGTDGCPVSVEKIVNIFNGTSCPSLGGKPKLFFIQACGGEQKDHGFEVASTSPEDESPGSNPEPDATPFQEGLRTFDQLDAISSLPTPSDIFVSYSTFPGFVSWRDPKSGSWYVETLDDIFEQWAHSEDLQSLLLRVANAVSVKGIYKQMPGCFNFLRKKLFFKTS
Experimental: as §3
In assay [3] the test system is proteolytic cleavage of PARP (poly ADP-ribose polymerase) in Hela cells. The assay is described as follows: Inhibition of staurosporine-induced PARP cleavage in live Hela cells. To be noted: Homo sapiens, HeLa. Type of assay: cell-based. The procedure: To test the efficacy of caspase-3 inhibitors at the cellular level, the ability of selected compounds to inhibit the proteolytic cleavage of PARP (poly ADP-ribose polymerase) was evaluated in live Hela cells.
Briefly, in this assay Hela cells are seeded in 96 well plates and incubated for 4 hours with staurosporine, a well characterized inducer of apoptosis, alone or together with different concentrations of compound (50, 25, 10 and 3 uM). After formaldehyde-based fixation, the cells are stained with a fluorescein-labeled anti-cleaved PARP antibody (Cell signaling, Cat#: 9547) and counterstained with Hoechst33342 (Invitrogen, Cat#: H3570) to mark all nuclei. Fluorescence images are taken on a Cellomics™ microscope system (Thermo Scientific, Pittsburgh, USA) with the Hoechst stain in the blue channel and the cleaved PARP antibody stain in the green channel. The percentage of cleaved PARP positive cells is determined by calculating the ratio between nuclei with a cleaved PARP antibody staining above a certain threshold and all (Hoechst positive) nuclei. The efficacy of caspase-3 inhibition is determined by calculating the ratio between cleaved PARP positive cells after staurosporine incubation together with compounds and staurosporine incubation without compounds.

Assay [4] concerns Glo3/7. The assay is described as follows: Glo3/7 assay. Type of assay: biochemical.
The target in assay [5] is Caspase-3 (Homo sapiens (Human), UniProt P42574). The assay is described as follows: Caspase-3 Inhibitor Drug Screening Kit, fluorometric (AFC liberation). Type of assay: biochemical. The conditions noted are these: 30-minute incubation at 37° C.; approximations of the average values; read-out: Caspase enzymatic activity, IC50 (uM) Caspase 3.
Caspase-3, sequence (P42574 29-277): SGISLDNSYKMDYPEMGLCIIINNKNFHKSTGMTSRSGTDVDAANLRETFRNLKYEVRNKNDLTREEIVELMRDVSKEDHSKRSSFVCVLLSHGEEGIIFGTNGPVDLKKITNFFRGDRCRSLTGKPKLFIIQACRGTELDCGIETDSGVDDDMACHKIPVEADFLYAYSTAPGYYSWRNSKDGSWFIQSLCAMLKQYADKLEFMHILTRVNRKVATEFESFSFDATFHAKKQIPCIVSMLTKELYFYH
Experimental: as §3
Assay [6] concerns the target T3, Caspase-1 (Homo sapiens (Human), UniProt P29466). Kind of assay: Caspase-1 Inhibitor Drug Screening Kit, fluorometric (AFC liberation). The conditions noted are these: 30-minute incubation at 37° C.; approximations of the average values; read-out: Caspase enzymatic activity, IC50 (uM) Caspase 1. Type of assay: biochemical.
Experimental: as §3
Assay [7] deals with EAE in C57BL/6 mice. Kind of assay: Chronic EAE mouse model (MOG35-55 immunization), daily clinical score and body weight. Type of assay: in vivo. More on the design: key to Delay in onset of the disease / Reduction in severity of the disease / Reduction in body weight loss: +++: high level improvement; ++: moderate improvement; +: small improvement; −: no improvement. From the text:
The aim of this study was to verify the effectiveness of compounds in a chronic mouse animal model of EAE. EAE is a good proof-of-principle model of neurodegeneration since it encompasses degeneration or destruction of practically all the cells in the central nervous system, includes most major immunomodulatory components, and is able to maintain normal innate regenerative functions in the animal. This is a standard model (Antel J P et al., J Neurosci Res. 1997, 50: 345-353) used mainly to mimic the course evolution of Multiple Sclerosis (MS) in humans, and is commonly used for studying disease mechanisms and testing potential therapies. EAE is induced by immunization with myelin proteins, leading to development of myelin-specific T cells. These autoreactive T cells traffic into CNS parenchyma where they initiate an inflammatory cascade through recruitment of other cells such as monocytes and neutrophils. Accumulation of immune cells within CNS leads to myelin damage, axonal loss and clinical deficit in affected animals. EAE can be induced in a variety of species and strains of animals [mice, Rat, marmoset monkey, rhesus macaques] using various CNS antigens [Myelin Oligodendrocyte Glycoprotein (MOG), proteolipid protein (PLP) and myelin basic protein (MBP)]. Seven to 8 week old female C57BL/6 mice were purchased from Charles River Laboratories, and housed at MISPRO™ animal facility for one week before experimentation for adaptation to the new environment. All proper animal experimentation and ethics approvals were obtained prior to the start of any experiments. Mice were immunized subcutaneously with 100 μg of MOG35-55 (Sheldon Biotechnology Centre, McGill University) in CFA containing 5 mg/ml of desiccated (killed and dried) Mycobacterium tuberculosis H37Ra (Difco, Inc), at two sites on the back. The mice were then injected with 200 ng of pertussis toxin (List Biological Laboratories, Inc) in PBS intraperitoneally on days 0 and 2 using 25 gauge needles and scored daily using an EAE clinical scale as detailed below (Touil T et al., J Neurol Sci. 2008, 271:191-202; Antel J P et al., 1997, supra; Owens T et al., Curr Pharm Des. 2005, 1:1031-1037).
EAE was clinically assessed throughout the experiments by daily scoring using a scale from 0 to 5 as follows: partial limp tail, 0.5; full limp tail, 1; limp tail and waddling gait, 1.5; paralysis of one hind limb, 2; paralysis of one hind limb and partial paralysis of other hind limb, 2.5; paralysis of both hind limbs, 3; ascending paralysis, 3.5; paralysis of trunk, 4; moribund, 4.5; death, 5. In all the EAE models a body weight loss is always associated with the clinical signs. This body weight loss is associated with the loss of the function and the paralysis of the muscle (atrophy inducing loss of weight). For animals showing a clinical sign of 2 or more, the food and the water were presented inside the cage to facilitate eating and drinking.
At the onset of clinical signs of EAE, the mice were treated with 200 μl of Compound 51, 53, 57, 59, 101, 104, 105, 111 or 123 dissolved in 2.5% Dimethyl sulfoxide (DMSO) in PBS, while placebo groups were treated with 2.5% Dimethyl sulfoxide (DMSO) in PBS only, by intraperitoneal injection at different time of the clinical evolution.

Assay [8] has as its target T4, Caspase-5 (Homo sapiens (Human), UniProt P51878). The assay is described as follows: Caspase-5 Inhibitor Drug Screening Kit, fluorometric (AFC liberation). Type of assay: biochemical. The conditions noted are these: 30-minute incubation at 37° C.; approximations of the average values; read-out: Caspase enzymatic activity, IC50 (uM) Caspase 5.
Target sequence in this assay (P51878 137-434): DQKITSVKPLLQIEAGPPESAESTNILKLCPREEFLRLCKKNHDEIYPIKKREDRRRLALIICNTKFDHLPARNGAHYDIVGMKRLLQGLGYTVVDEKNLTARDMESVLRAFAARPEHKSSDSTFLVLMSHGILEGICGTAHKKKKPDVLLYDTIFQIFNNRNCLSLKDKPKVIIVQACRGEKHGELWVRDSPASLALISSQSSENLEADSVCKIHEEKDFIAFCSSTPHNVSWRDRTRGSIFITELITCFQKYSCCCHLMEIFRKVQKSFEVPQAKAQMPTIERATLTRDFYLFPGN
Experimental: as §3
For assay [9], the target named is T2, Caspase-9. The assay is described as follows: Fluorometric enzymatic assay, active recombinant Caspase-9. The conditions noted are these: FIG. 5.
Target sequence in this assay (P55211 whole entry, looked up, change not shown): as the sequence (P55211 whole entry) above
Target sequence in this assay (P55211 whole entry, looked up, change not shown): as the sequence (P55211 whole entry) above
Experimental: (§4) Each dilution of the test compounds was tested in duplicates, whereas the DMSO or Z-VAD-FMK controls were tested in triplicates. […] The inhibition efficiency and the IC50 values of the test compounds were then determined by comparing the fluorescence intensity (FI) of the test compounds with that of the DMSO control.
The target in assay [10] is Caspase-2 (Homo sapiens (Human), UniProt P42575). The assay is described as follows: Fluorometric enzymatic assay, active recombinant Caspase-2. The assay is classed as biochemical. On the procedure: (§1) . In brief, each compound was serially diluted for a final test concentration range of 0.1 nM to 3.3 μM (10-point titration). Each active recombinant Caspase (Active Recombinant Caspase Set IV™ (BioVision, Cat# K233-10-25)) was added to the respective wells of the 96-well High Efficiency™ plates (Molecular Devices, Cat#75-000-0005), followed by the addition of the diluted test compounds. DMSO (Final=1%) or Z-VAD-FMK (Caspase-Family Inhibitor, Z-VAD-FMK (BioVision, Cat#1010-100), Final concentration=20 uM) was added in the designated wells as a background control or positive inhibitor control respectively. Each dilution of the test compounds was tested in duplicates, whereas the DMSO or Z-VAD-FMK controls were tested in triplicates. The synthetic peptide substrate specific for each Caspase (BioVision) was then added to the respective wells, which when cleaved by the active caspase releases free AFC that can be quantified by fluorometry. After a 30-minute incubation at 37° C., the plates were read using the Flexstation 3™ with a 400 nm excitation filter and a 505 nm emission filter (cutoff at 495 nm). The inhibition efficiency and the IC50 values of the test compounds were then determined by comparing the fluorescence intensity (FI) of the test compounds with that of the DMSO control.
Caspase-2, sequence (P42575 170-325): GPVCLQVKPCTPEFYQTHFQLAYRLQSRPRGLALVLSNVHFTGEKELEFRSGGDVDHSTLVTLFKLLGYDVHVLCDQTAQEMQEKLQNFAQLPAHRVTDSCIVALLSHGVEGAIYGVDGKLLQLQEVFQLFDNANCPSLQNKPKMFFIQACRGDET
Caspase-2, sequence (P42575 348-452): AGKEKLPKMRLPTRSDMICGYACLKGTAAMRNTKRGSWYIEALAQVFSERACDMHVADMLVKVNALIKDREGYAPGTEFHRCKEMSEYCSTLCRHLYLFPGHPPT
(§2) The SoftMax Pro Software™ (v5.2 rev C, Molecular Devices) was used for data analysis. The % Inhibition is calculated by: % Inhibition=[FI(DMSO)−FI(test sample)/FI(DMSO)]×100. The % Inhibition vs. Log(concentration) was plotted, and the curve was fitted using the 5-parameter fit of the software.

The target of assay [11] is T1, Caspase-7. Kind of assay: Fluorometric enzymatic assay, active recombinant Caspase-7.
Experimental: as §4
Assay [12] has as its target Caspase-8 (Homo sapiens (Human), UniProt Q14790). Kind of assay: Fluorometric enzymatic assay, active recombinant Caspase-8. The assay is classed as biochemical. On the procedure:
as §1, §2

The target in assay [13] is Caspase-6 (Homo sapiens (Human), UniProt P55212). Kind of assay: Fluorometric enzymatic assay, active recombinant Caspase-6. The assay is classed as biochemical. On the procedure: as §1, §2
Caspase-6, sequence (P55212 24-179): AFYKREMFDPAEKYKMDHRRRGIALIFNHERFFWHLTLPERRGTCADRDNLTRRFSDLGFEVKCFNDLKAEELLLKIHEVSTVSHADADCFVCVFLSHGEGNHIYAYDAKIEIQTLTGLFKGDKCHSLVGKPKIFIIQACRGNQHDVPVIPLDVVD
Caspase-6, sequence (P55212 194-293): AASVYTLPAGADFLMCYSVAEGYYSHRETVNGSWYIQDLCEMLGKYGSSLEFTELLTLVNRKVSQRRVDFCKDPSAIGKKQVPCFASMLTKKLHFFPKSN
In assay [14] the target is T4, Caspase-5. Kind of assay: Fluorometric enzymatic assay, active recombinant Caspase-5. The assay is classed as biochemical. The procedure:
as §1, §2
Target sequence in this assay (P51878 whole entry, looked up): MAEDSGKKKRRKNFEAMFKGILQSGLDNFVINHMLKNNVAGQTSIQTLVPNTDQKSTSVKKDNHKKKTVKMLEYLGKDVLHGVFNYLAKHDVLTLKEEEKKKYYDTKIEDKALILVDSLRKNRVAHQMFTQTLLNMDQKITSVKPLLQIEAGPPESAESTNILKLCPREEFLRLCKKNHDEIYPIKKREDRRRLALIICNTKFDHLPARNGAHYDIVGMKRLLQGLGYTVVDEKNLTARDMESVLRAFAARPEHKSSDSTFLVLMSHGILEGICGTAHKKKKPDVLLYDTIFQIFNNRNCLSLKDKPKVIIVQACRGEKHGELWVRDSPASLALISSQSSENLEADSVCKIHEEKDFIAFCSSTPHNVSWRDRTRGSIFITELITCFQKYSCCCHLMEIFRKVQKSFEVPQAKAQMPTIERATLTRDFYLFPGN
Target sequence in this assay (P51878 whole entry, looked up): as above

In assay [15] the target is T3, Caspase-1. Kind of assay: Fluorometric enzymatic assay, active recombinant Caspase-1.
Target sequence in this assay (P29466 whole entry, looked up): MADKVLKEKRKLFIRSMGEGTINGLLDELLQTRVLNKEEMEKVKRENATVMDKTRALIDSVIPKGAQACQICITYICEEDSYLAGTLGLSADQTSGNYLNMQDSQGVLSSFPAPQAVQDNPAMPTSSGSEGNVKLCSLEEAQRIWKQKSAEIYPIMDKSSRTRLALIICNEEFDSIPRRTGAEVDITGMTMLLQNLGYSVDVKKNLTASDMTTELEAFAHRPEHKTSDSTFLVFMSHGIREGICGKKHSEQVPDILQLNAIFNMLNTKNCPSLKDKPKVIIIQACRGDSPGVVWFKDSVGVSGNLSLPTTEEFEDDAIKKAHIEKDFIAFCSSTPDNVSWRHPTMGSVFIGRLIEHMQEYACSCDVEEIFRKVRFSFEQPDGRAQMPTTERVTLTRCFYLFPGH
Target sequence in this assay (P29466 whole entry, looked up): as above
Experimental: as §4
Assay [16] addresses Caspase-4 (Homo sapiens (Human), UniProt P49662). Kind of assay: Fluorometric enzymatic assay, active recombinant Caspase-4.
Experimental: as §4
Assay [17] has as its target Caspase-10 (Homo sapiens (Human), UniProt Q92851). The assay is described as follows: Fluorometric enzymatic assay, active recombinant Caspase-10.
Experimental: as §4
The mark [18] stands for this setting: FIG. 2, i.p. from day 10 to 16 post immunization, versus placebo.
Where [19] appears, read: average overall effects on the EAE model, i.p.

Caspase-4, sequence (P49662 81-270): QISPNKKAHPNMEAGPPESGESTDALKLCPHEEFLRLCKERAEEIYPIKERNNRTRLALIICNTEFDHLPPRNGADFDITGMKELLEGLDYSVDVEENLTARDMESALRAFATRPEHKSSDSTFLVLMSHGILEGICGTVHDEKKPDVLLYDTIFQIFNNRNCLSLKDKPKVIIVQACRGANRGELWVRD
Caspase-4, sequence (P49662 290-377): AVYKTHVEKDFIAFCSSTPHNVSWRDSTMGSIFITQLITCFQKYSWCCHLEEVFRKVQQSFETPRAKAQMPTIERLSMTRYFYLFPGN
Caspase-10, sequence (Q92851 220-415): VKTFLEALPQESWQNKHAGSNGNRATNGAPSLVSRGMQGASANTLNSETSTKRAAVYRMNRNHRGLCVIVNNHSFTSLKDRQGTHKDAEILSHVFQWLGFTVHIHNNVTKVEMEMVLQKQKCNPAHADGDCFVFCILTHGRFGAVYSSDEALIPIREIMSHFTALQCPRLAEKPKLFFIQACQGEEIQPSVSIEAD
Caspase-10, sequence (Q92851 416-521): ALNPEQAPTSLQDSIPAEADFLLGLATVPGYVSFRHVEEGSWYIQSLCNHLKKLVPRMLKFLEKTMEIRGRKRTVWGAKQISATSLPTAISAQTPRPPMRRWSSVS
Caspase-8, sequence (Q14790 217-374): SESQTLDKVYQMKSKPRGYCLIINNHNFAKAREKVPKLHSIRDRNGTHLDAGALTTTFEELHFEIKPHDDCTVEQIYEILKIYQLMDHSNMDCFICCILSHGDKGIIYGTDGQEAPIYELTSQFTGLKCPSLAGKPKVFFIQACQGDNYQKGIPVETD
Caspase-8, sequence (Q14790 385-479): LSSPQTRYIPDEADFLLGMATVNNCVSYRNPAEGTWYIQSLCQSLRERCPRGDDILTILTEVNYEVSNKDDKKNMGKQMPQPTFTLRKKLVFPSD

Consider `COC(=O)C[C@@H](/C=C/S(C)(=O)=O)NC(=O)[C@@H](NC(=O)[C@@H](NC(=O)[C@H](CC(=O)OC)NC(=O)OCc1ccccc1)c1ccccc1)C(C)C` [Compound 101, Z-Asp(β-methyl)-phenylglycine-Val-Asp(β-methyl)methyl vinyl sulfone], for which the IC50 in [1] is above 3.33 µM; in [2], above 3.33 µM; in assay [4], 20 µM; in [5], above 3.33 µM; in [6], above 3.33 µM; in [8], above 3.33 µM. Moreover, the inhibition at 50 µM in [3] (4 h, read-out: % inhibition of PARP cleavage at 50 uM compound, Hela cells, staurosporine 4 hours, 50 uM compound) amounted to 40%; in assay [3] (Hela cells, 50 uM, read-out: % of inhibition with compound relative to DEVDFMK) it was 45%. The Disease onset entry in [7] (setting [18]) is given as “delayed”. For the same compound, the “Loss of body weight” value in [7] (setting [18]) is listed as “less than placebo”; in [7] (FIG. 3, i.p. from day 14 to 19 post immunization, versus placebo), “less than in the placebo group”. In addition, the “severity of the disease” value in assay [7] (setting [18]) is “reduced significantly at the early stage of the disease”. The “Delay in onset of the disease” value in [7] (setting [19]) was “+”. Also, the “Reduction in body weight loss” value in assay [7] (setting [19]) is “++”. Also, the “Reduction in severity of the disease” value in assay [7] (setting [19]) was “+”.
Regarding `COC(=O)CC[C@H](NC(=O)[C@H](CC(=O)OC)NC(=O)OCc1ccccc1)C(=O)N[C@H](C(=O)N[C@@H](CC(=O)OC)C(=O)CF)C(C)C` [Z-DEVD-FMK, z-D(OMe)E(OMe)VD(OMe)FMK, reference compound], the “inhibitory activity towards Caspase-9” value in assay [9] is “inhibitory activity”. For the same compound, the IC50 in assay [10] is above 3.33 µM; in [11] it was above 3.33 µM; in assay [12], 1.6 µM; in assay [13], above 3.33 µM; in [14] it was above 3.33 µM; in assay [15], 0.7 µM. Further, the IC50 amounted to 2.5 µM in assay [16] and 2.7 µM in [17]. For the same compound, the “inhibitory activity towards Caspase-2” value in [10] (FIG. 5) was “negligible”. In addition, in assay [12] (FIG. 5), the “inhibitory activity towards Caspase-8” value is given as “inhibitory activity”. The “inhibitory activity towards Caspase-6” value in [13] (FIG. 5) is recorded as “negligible”. Also, in assay [14] (FIG. 5), the “inhibitory activity towards Caspase-5” value is recorded as “negligible”. Further, the “inhibitory activity towards Caspase-1” value in [15] (FIG. 5) is recorded as “inhibitory activity”. The “inhibitory activity towards Caspase-4” value in [16] (FIG. 5) was “inhibitory activity”. In assay [17] (FIG. 5), the “inhibitory activity towards Caspase-10” value was “inhibitory activity”.
